Here are results for one compound from patent publication US20190100761A1, “COMPOSITIONS AND METHODS FOR ENHANCED GENE EXPRESSION AND VIRAL REPLICATION” (priority 2016, published 2019).

Data set [1] deals with m^6A addition to mRNA substrates. The conditions noted are these: by blocking the hydrolysis of S-adenosylhomocysteine; literature; cited from earlier work.
The subject of a further data set is RSV. The note with it: literature report; cited from earlier work.
A further data set has as its system IAV. The conditions noted are these: literature report; cited from earlier work.
The subject of the next data set is HIV-1 NL4-3. Type of data set: cell-based. The note with it: 50 μM DAA, CEM-SS cells, Western at 72 hpi.
For data set [2], the system named is m^6A levels in total poly(A)+ RNA. The class given is cell-based, human. The note with it: 50 μM DAA, CEM-SS cells, dot blot.
The next data set concerns HIV-1. The note with it: literature report; cited from earlier work.

In the case of `Nc1nccc2c1ncn2[C@@H]1O[C@H](CO)[C@@H](O)[C@H]1O` [DAA, 3-deazaadenosine], in data set [1], the “m^6A addition to mRNA substrates” value is listed as “block m^6A addition”. Moreover, in the data set with RSV, the “replication of RSV” value was “inhibit the replication”. Besides, the “cell growth or viability” value with CEM-SS cells (50 μM DAA, four day treatment period, CEM-SS cells) is reported as “did not reduce cell growth or viability”. Also, the “total level of cellular protein (BCA assay) in HIV-1 infected cultures” value in the data set with CEM-SS cells (presence or absence of DAA, CEM-SS cell pellets) is “similar”. In the data set on IAV, the “replication of IAV” value is recorded as “inhibit the replication”. Moreover, the “replication of HIV-1” value is reported as “effectively inhibited” with HIV-1 NL4-3 and “inhibit the replication” with HIV-1. Further, the “m^6A levels in total poly(A)+ RNA” value in data set [2] is recorded as “significant decline”.
